Measured values from patent US9034886B2, “4-aminoquinazoline derivatives and uses thereof” (Shanghai Institute of Pharmaceutical Industry, priority 2011, dated 2015).

Tests used:
HDACs = experiment: In vitro inhibition of HDACs (HDAC Inhibitor Drug Screening Kit, Biovision K340-100); type: biochemical; conditions: for inhibitory activity on HDACs compared with MS-275: concentrations of 2 mM, 200 μM, and 40 μM
Experimental: The in vitro inhibitory activities of the compounds towards HDACs were tested according to the instructions in the HDAC Inhibitor Drug Screening Kit (Biovision/Catalog #K340-100).
(1) The compounds to be tested were each individually prepared as 2 mM, 200 μM and 40 μM solutions and their inhibitory activities at these concentrations were tested.

[1] = system: Hep3B2.1-7 human liver cancer cells; experiment: In vitro anti-proliferative effect, CCK-8 method, Hep3B; type: cell-based; conditions: Homo sapiens, Hep3B cell strain, CCK-8 method; for inhibition at 10 µM: compound at 10 μM; for inhibition at 100 µM: compound at 100 μM
Experimental: (§1) The inhibitory activities of the compounds towards Hut78 T lymphocytic leukemia cells, Jurkat E6-1 human T-cell lymphoma, PANC-1 human pancreatic cancer cells, A549 human lung cancer cells, K562 human chronic myelogenous leukemia cells, Hep3B2.1-7 human liver cancer cells, MDA-MB-435s human breast cancer cells. Colo320 human colorectal cancer cell lines, and PC-3 human prostate cancer at two concentrations of 100 μM and 10 μM were determined. The inhibition percentages were obtained through CCK-8 method.

[2] = system: Hut78 T lymphocytic leukemia cells; experiment: In vitro anti-proliferative effect, CCK-8 method, Hut78; type: cell-based; conditions: Homo sapiens, HuT78, read-out: Hut-78 (inhibition %)
Experimental: as §1

[3] = system: Colo320 human colorectal cancer cell lines; experiment: In vitro anti-proliferative effect, CCK-8 method, Colo320; type: cell-based; conditions: Homo sapiens, COLO 320, Colo320 cell strain, CCK-8 method; for inhibition at 10 µM: compound at 10 μM; for inhibition at 100 µM: compound at 100 μM
Experimental: as §1

[4] = system: MDA-MB-435s human breast cancer cells; experiment: In vitro anti-proliferative effect, CCK-8 method, MDA-MB-435s; type: cell-based; conditions: Homo sapiens, MDA-MB-435S
Experimental: as §1

[5] = system: PANC-1 human pancreatic cancer cells; experiment: In vitro anti-proliferative effect, CCK-8 method, PANC-1; type: cell-based; conditions: Homo sapiens, PANC-1
Experimental: as §1

[6] = system: A549 human lung cancer cells; experiment: In vitro anti-proliferative effect, CCK-8 method, A549; type: cell-based; conditions: Homo sapiens, A549
Experimental: as §1

[7] = system: K562 human chronic myelogenous leukemia cells; experiment: In vitro anti-proliferative effect, CCK-8 method, K562; type: cell-based; conditions: Homo sapiens, K562
Experimental: as §1

[8] = system: Jurkat E6-1 human T-cell lymphoma; experiment: In vitro anti-proliferative effect, CCK-8 method, Jurkat E6-1; type: cell-based; conditions: Homo sapiens, Jurkat E6.1
Experimental: as §1

[9] = system: PC-3 human prostate cancer; experiment: In vitro anti-proliferative effect, CCK-8 method, PC-3; type: cell-based; conditions: Homo sapiens, PC-3 cell strain, CCK-8 method; for inhibition at 10 µM: compound at 10 μM; for inhibition at 100 µM: compound at 100 μM
Experimental: as §1

HDAC1 = HDAC1 (Homo sapiens (Human), UniProt Q13547); experiment: In vitro inhibition of subtype HDAC1 (HDAC1 Inhibitor Drug Screening Kit, Biovision); type: biochemical; conditions: for inhibition at 1 µM / inhibition at 10 µM: read-out: % Inhibition towards HDAC1
Experimental: The in vitro inhibitory activities of the compounds towards the subtype HDAC1 were tested according to the instructions in the HDAC1 Inhibitor Drug Screening Kit (Biovision).
(1) The compounds to be tested were each individually prepared as 10 μM and 1 μM solutions and their inhibitory activities at these concentrations were tested.
Each dilution sample was placed in two wells and the enzyme inhibition IC50 of the compound was tested.

HDAC1, sequence (Q13547 whole entry): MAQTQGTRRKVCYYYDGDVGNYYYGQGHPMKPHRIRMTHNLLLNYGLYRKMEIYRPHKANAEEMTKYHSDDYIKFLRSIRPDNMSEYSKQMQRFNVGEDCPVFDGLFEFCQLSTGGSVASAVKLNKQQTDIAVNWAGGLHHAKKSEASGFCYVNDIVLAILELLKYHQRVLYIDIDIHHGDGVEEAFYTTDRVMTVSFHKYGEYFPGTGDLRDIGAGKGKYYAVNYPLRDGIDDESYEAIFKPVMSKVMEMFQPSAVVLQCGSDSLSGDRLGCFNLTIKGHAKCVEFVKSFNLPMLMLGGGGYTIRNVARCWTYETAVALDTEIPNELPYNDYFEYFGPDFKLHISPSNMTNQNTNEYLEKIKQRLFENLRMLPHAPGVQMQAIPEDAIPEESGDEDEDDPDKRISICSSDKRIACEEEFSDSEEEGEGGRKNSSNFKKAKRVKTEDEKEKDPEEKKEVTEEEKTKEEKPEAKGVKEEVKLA

Row | SMILES | Inhibition percentage (%) towards HDACs (HDACs; 40 μM) [%] | Inhibition percentage (%) towards HDACs (HDACs; 200 μM) [%] | Inhibition percentage (%) towards HDACs (HDACs; 2 mM) [%] | inhibition at 10 µM [1] [%] | inhibition at 100 µM [1] [%] | inhibition at 10 µM [2] [%] | inhibition at 100 µM [2] [%] | inhibition at 10 µM [3] [%] | inhibition at 100 µM [3] [%] | inhibition at 10 µM [4] [%] | inhibition at 100 µM [4] [%] | inhibition at 10 µM [5] [%] | inhibition at 100 µM [5] [%] | inhibition at 10 µM [6] [%] | inhibition at 100 µM [6] [%] | inhibition at 10 µM [7] [%] | inhibition at 100 µM [7] [%] | inhibition at 10 µM [8] [%] | inhibition at 100 µM [8] [%] | inhibition at 10 µM [9] [%] | other results
1 | Nc1ccccc1NC(=O)c1ccc(Nc2ncnc3ccccc23)cc1 [Compound V-1, N-(2-aminophenyl)-4-(quinazoline-4-amino)benzamide] | 9.4 | 19.8 | 65.2 | 2.6 | 37.4 | 36 | 67.2 | 33.7 | 78.3 | 26.7 | 87.5 | 40.2 | 65.4 | 50.6 | 89.7 | 22.4 | 30.8 | 48.5 | 79.3 | 79.5 | inhibition at 100 µM [9]: 91.5%
2 | Nc1ccc(F)cc1NC(=O)c1ccc(Nc2ncnc3ccccc23)cc1 [Compound V-3, N-(2-amino-5-fluorophenyl)-4-(quinazoline-4-amino)benzamide] | 9.5 | 36.0 | 78.2 | -12.3 | 59.2 | 18.2 | 92.9 | -7.1 | 47.2 | 4.5 | 85.5 | 5.7 | 5.5 | -7.8 | 72.3 | 51 | 85.1 | 27.1 | 96 | 0.6 | inhibition at 100 µM [9]: 36.9%
3 | COc1cccc2ncnc(Nc3ccc(C(=O)Nc4ccccc4N)cc3)c12 [Compound V-7, N-(2-aminophenyl)-4-(5-methoxy-quinazoline-4-amino)benzamide] | 6.5 | 22.1 | 39.2 | 8.1 | 53.2 | 10.7 | 60.3 | 8.9 | 48.5 | -16.5 | 85.4 | 1.1 | 35.2 | -7.4 | 24.9 | 29.7 | 82.6 | 26.4 | 91 | 8.1 | IC50 (HDACs): 3990 nM; inhibition at 100 µM [9]: 49.8%; inhibition at 1 µM (HDAC1): 50.1%; inhibition at 10 µM (HDAC1): 78.4%; inhibitory activity against HDAC1 compared with MS-275 (HDAC1; both concentrations 10 μM and 1 μM): superior to that of MS-275
4 | COc1cccc2ncnc(Nc3ccc(C(=O)Nc4ccncc4N)cc3)c12 [Compound V-8] | 8.9 | 41.1 | 46.2 | 5 | 90.4 | 17.5 | 83.6 | -1.8 | 86.4 | 14.2 | 94.5 | -1.8 | 34.9 | -5.9 | 38 | 56.9 | 94.5 | 36.4 | 96.3 | 29.7 | IC50 (HDACs): 7760 nM; inhibition at 100 µM [9]: 89.3%; inhibition at 1 µM (HDAC1): 21.4%; inhibition at 10 µM (HDAC1): 62.7%
5 | COc1cc2ncnc(NCc3ccc(C(=O)Nc4cc(-c5cccs5)ccc4N)cc3)c2cc1OC [Compound V-31, N-[2-amino-5-(2-thienyl)phenyl]-4-[(6,7-dimethoxyquinazoline-4-amino)methyl]benzamide] | 3.5 | 17.3 | 69.8 | -5 | 51.7 | 28.2 | 95.8 | 76.3 | 77 | 24.2 | 89.2 | 20.8 | 50.6 | 56.3 | 88.8 | 27.9 | 67.7 | 62.4 | 93.7 | 6.3 | inhibition at 100 µM [9]: 38.8%
6 | COc1ccc2c(NCc3ccc(C(=O)Nc4ccccc4N)cc3)ncnc2c1 [Compound V-32, N-(2-aminophenyl)-4-[(7-methoxyquinazoline-4-amino)methyl]benzamide] | 2.2 | 3.1 | 42.5 |  |  |  |  |  |  |  |  |  |  |  |  |  |  |  |  |  | 
7 | COc1ccc2ncnc(NCc3ccc(C(=O)Nc4ccccc4N)cc3)c2c1 [Compound V-33, N-(2-aminophenyl)-4-[(6-methoxyquinazoline-4-amino)methyl]benzamide] | 53.2 | 66.8 | 88.8 |  |  |  |  |  |  |  |  |  |  |  |  |  |  |  |  |  | IC50 (HDACs): 1010 nM; inhibitory activity according to in vitro IC50 value against HDACs compared with MS-275 (HDACs): better inhibitory activities than MS-275; inhibitory activity on HDACs compared with MS-275 (HDACs): significantly stronger inhibitory activities than MS-275
8 | COc1cccc2c(NCc3ccc(C(=O)Nc4cc(F)ccc4N)cc3)ncnc12 [Compound V-35, N-(2-amino-5-fluorophenyl)-4-[(8-methoxyquinazoline-4-amino)methyl]benzamide] | 10.1 | 47.8 | 81.8 |  |  |  |  |  |  |  |  |  |  |  |  |  |  |  |  |  | 
9 | Nc1ccccc1NC(=O)c1ccc(CNc2ncnc3ccc([N+](=O)[O-])cc23)cc1 [Compound V-37, N-(2-aminophenyl)-4-[(6-nitroquinazoline-4-amino)methyl]benzamide] | 24.0 | 56.1 | 65.7 |  |  |  |  |  |  |  |  |  |  |  |  |  |  |  |  |  | 
10 | COCCOc1cc2ncnc(NCc3ccc(C(=O)Nc4ccncc4N)cc3)c2cc1OCCOC [Compound V-39, N-(2-amino-4-pyridyl)-4-[(6,7-dimethoxyethoxyquinazoline-4-amino)methyl]benzamide] | 34.3 | 58.0 | 85.3 |  |  |  |  |  |  |  |  |  |  |  |  |  |  |  |  |  | 
11 | COc1cc2ncnc(NCc3ccc(C(=O)Nc4ccncc4N)cc3)c2cc1OCCCN1CCOCC1 [Compound V-42] | 17.2 | 46.7 | 90.6 |  |  |  |  |  |  |  |  |  |  |  |  |  |  |  |  |  | IC50 (HDACs): 1670 nM; inhibitory activity according to in vitro IC50 value against HDACs compared with MS-275 (HDACs): better inhibitory activities than MS-275; inhibitory activity on HDACs compared with MS-275 (HDACs): significantly stronger inhibitory activities than MS-275
12 | CC(=O)Nc1ccc2ncnc(NCc3ccc(C(=O)Nc4cc(-c5ccco5)ccc4N)cc3)c2c1 [Compound V-48, N-[2-amino-5-(2-furyl)phenyl]-4-[(6-acetamidoquinazoline-4-amino)methyl]benzamide] | 14.0 | 42.2 | 85.0 | -14 | 20.5 | 75.4 | 87.4 | 2.9 | 17.9 | 10 | 26.6 | -2.2 | 51.8 | 3.9 | 9.8 | 20 | 57.2 | 9.7 | 61.9 | -16.4 | inhibition at 100 µM [9]: 14.8%
